Assays:
[1] = AUC of total HMG-CoA reductase inhibitor (both lactone and open acid) following administration of simvastatin tablet at 160 mg dose level in hypercholesterolemic patients; format: ADME, organism-based, Plasma; conditions: human, in vivo, po
[2] = Mean AUC (0-t) of simvastatin following administration of simvastatin 80 mg orally disintegrating tablet in healthy human; format: ADME, organism-based; conditions: plasma, po
[3] = AUC of total HMG-CoA reductase inhibitor (both lactone and open acid) following administration of simvastatin tablet at 80 mg dose level in hypercholesterolemic patients; format: ADME, organism-based, Plasma; conditions: human, in vivo, po
[4] = Cmax of total HMG-CoA reductase inhibitor (both lactone and open acid) following administration of simvastatin tablet at 80 mg dose level in hypercholesterolemic patients; format: ADME, organism-based, Plasma; conditions: human, in vivo, po
[5] = Mean elimination half-life of simvastatin following administration of reference product Zocor 80 mg tablet in healthy human; format: ADME, organism-based; conditions: plasma, po
[6] = Mean Cmax of simvastatin following administration of reference product Zocor 80 mg tablet in healthy human; format: ADME, organism-based; conditions: plasma, po
[7] = AUC of total HMG-CoA reductase inhibitor (both lactone and open acid) following administration of simvastatin tablet at 40 mg dose level in hypercholesterolemic patients; format: ADME, organism-based, Plasma; conditions: human, in vivo, po
[8] = Mean elimination rate constant of simvastatin following administration of simvastatin 80 mg orally disintegrating tablet in healthy human; format: ADME, organism-based; conditions: plasma, po
[9] = Mean AUC (0-t) of simvastatin following administration of reference product Zocor 80 mg tablet in healthy human; format: ADME, organism-based; conditions: plasma, po
[10] = Mean elimination half-life of simvastatin following administration of simvastatin 80 mg orally disintegrating tablet in healthy human; format: ADME, organism-based; conditions: plasma, po
[11] = Mean Cmax of simvastatin following administration of simvastatin 80 mg orally disintegrating tablet in healthy human; format: ADME, organism-based; conditions: plasma, po
[12] = system: Canis lupus familiaris; test: Plasma protein binding of simvastatin following oral dose of simvastatin at 2 mg.Kg-1 level in dog; format: organism-based; set-up: dose 2 mg.Kg-1, dosed compound id 2.4681e+06, dosed compound name, dose level, study doses mg.Kg-1
[13] = Mean AUC (0-infinity) of simvastatin following administration of simvastatin 80 mg orally disintegrating tablet in healthy human; format: ADME, organism-based; conditions: plasma, po, read-out: AUC (0-infinity)
[14] = Absorption of simvastatin following oral administration of simvastatin in dog; format: ADME, organism-based, Canis lupus familiaris; conditions: in vivo
[15] = Mean elimination rate constant of simvastatin following administration of reference product Zocor 80 mg tablet in healthy human; format: ADME, organism-based; conditions: plasma, po
[16] = Cmax of total HMG-CoA reductase inhibitor (both lactone and open acid) following administration of simvastatin tablet at 160 mg dose level in hypercholesterolemic patients; format: ADME, organism-based, Plasma; conditions: human, in vivo, po
[17] = system: Homo sapiens; test: Plasma protein binding of simvastatin following oral dose of simvastatin at […] level in human; format: organism-based; set-up: dose 40 mg, dosed compound id 2.4681e+06, dosed compound name, dose level, study doses mg
[18] = Mean AUC (0-infinity) of simvastatin following administration of reference product Zocor 80 mg tablet in healthy human; format: ADME, organism-based; conditions: plasma, po, read-out: AUC (0-infinity)
[19] = Absorption of simvastatin following oral administration of simvastatin in rat; format: ADME, organism-based; conditions: in vivo
[20] = Cmax of total HMG-CoA reductase inhibitor (both lactone and open acid) following administration of simvastatin tablet at 40 mg dose level in hypercholesterolemic patients; format: ADME, organism-based, Plasma; conditions: human, in vivo, po
[21] = Absorption of simvastatin following oral administration of simvastatin in human; format: ADME, organism-based; conditions: in vivo
[22] = system: Homo sapiens; test: Plasma protein binding of simvastatin acid following oral dose of simvastatin at […] level in human; format: organism-based; set-up: dose 40 mg, dosed compound id 2.4681e+06, dosed compound name, dose level, study doses mg
[23] = Tmax of active HMG-CoA reductase inhibitor L-654,969 following administration of simvastatin tablet at 40 mg dose level in hypercholesterolemic patients; format: ADME, organism-based, Plasma; conditions: human, in vivo, po
[24] = Mean AUC (0-infinity) of simvastatin acid following administration of reference product Zocor 80 mg tablet in healthy human; format: ADME, organism-based, Plasma; conditions: in vivo, po
[25] = Cmax of active HMG-CoA reductase inhibitor L-654,969 following administration of simvastatin tablet at 160 mg dose level in hypercholesterolemic patients; format: ADME, organism-based, Plasma; conditions: human, in vivo, po
[26] = Mean AUC (0-t) of simvastatin acid following administration of reference product Zocor 80 mg tablet in healthy human; format: ADME, organism-based, Plasma; conditions: in vivo, po
[27] = Extrahepatic tissue penetration of active beta-hydroxy acid form of simvastatin following oral administration of simvastatin in dog; format: ADME, organism-based, Canis lupus familiaris; conditions: in vivo
[28] = Tmax of active HMG-CoA reductase inhibitor L-654,969 following administration of simvastatin tablet at 160 mg dose level in hypercholesterolemic patients; format: ADME, organism-based, Plasma; conditions: human, in vivo, po
[29] = Bioavailability of active beta-hydroxy acid form of simvastatin following oral administration of simvastatin in human; format: ADME, organism-based; conditions: in vivo
[30] = AUC of active HMG-CoA reductase inhibitor L-654,969 following administration of simvastatin tablet at 160 mg dose level in hypercholesterolemic patients; format: ADME, organism-based, Plasma; conditions: human, in vivo, po
[31] = Extensive biliary excretion of active beta-hydroxy acid form of simvastatin following oral administration of simvastatin in human; format: ADME, organism-based, Bile; conditions: in vivo
[32] = Tmax of active HMG-CoA reductase inhibitor L-654,969 following administration of simvastatin tablet at 80 mg dose level in hypercholesterolemic patients; format: ADME, organism-based, Plasma; conditions: human, in vivo, po
[33] = Mean AUC (0-t) of simvastatin acid following administration of simvastatin 80 mg orally disintegrating tablet in healthy human; format: ADME, organism-based, Plasma; conditions: in vivo, po
[34] = Mean Tmax of simvastatin acid following administration of simvastatin 80 mg orally disintegrating tablet in healthy human; format: ADME, organism-based, Plasma; conditions: in vivo, po
[35] = system: Canis lupus familiaris; test: Plasma protein binding of simvastatin acid following oral dose of simvastatin at 2 mg.Kg-1 level in dog; format: organism-based; set-up: dose 2 mg.Kg-1, dosed compound id 2.4681e+06, dosed compound name, dose level, study doses mg.Kg-1
[36] = AUC of active HMG-CoA reductase inhibitor L-654,969 following administration of simvastatin tablet at 80 mg dose level in hypercholesterolemic patients; format: ADME, organism-based, Plasma; conditions: human, in vivo, po
[37] = Bioavailability of active beta-hydroxy acid form of simvastatin following oral administration of simvastatin in dog; format: ADME, organism-based, Canis lupus familiaris; conditions: in vivo
[38] = Hepatic extraction of active beta-hydroxy acid form of simvastatin following oral administration of simvastatin in dog; format: ADME, organism-based, Canis lupus familiaris, Liver; conditions: in vivo
[39] = Mean elimination half-life of simvastatin acid following administration of reference product Zocor 80 mg tablet in healthy human; format: ADME, organism-based, Plasma; conditions: in vivo, po
[40] = Mean Cmax of simvastatin acid following administration of simvastatin 80 mg orally disintegrating tablet in healthy human; format: ADME, organism-based, Plasma; conditions: in vivo, po
[41] = Mean elimination rate constant of simvastatin acid following administration of simvastatin 80 mg orally disintegrating tablet in healthy human; format: ADME, organism-based, Plasma; conditions: in vivo, po
[42] = Extensive biliary excretion of active beta-hydroxy acid form of simvastatin following oral administration of simvastatin in dog; format: ADME, organism-based, Canis lupus familiaris, Bile; conditions: in vivo
[43] = AUC of active HMG-CoA reductase inhibitor L-654,969 following administration of simvastatin tablet at 40 mg dose level in hypercholesterolemic patients; format: ADME, organism-based, Plasma; conditions: human, in vivo, po
[44] = Mean elimination rate constant of simvastatin acid following administration of reference product Zocor 80 mg tablet in healthy human; format: ADME, organism-based, Plasma; conditions: in vivo, po
[45] = Mean AUC (0-infinity) of simvastatin acid following administration of simvastatin 80 mg orally disintegrating tablet in healthy human; format: ADME, organism-based, Plasma; conditions: in vivo, po
[46] = Mean Cmax of simvastatin acid following administration of reference product Zocor 80 mg tablet in healthy human; format: ADME, organism-based, Plasma; conditions: in vivo, po
[47] = Mean Tmax of simvastatin acid following administration of reference product Zocor 80 mg tablet in healthy human; format: ADME, organism-based, Plasma; conditions: in vivo, po
[48] = Hepatic extraction of active beta-hydroxy acid form of simvastatin following oral administration of simvastatin in rat; format: ADME, organism-based, Liver; conditions: in vivo
[49] = Mean elimination half-life of simvastatin acid following administration of simvastatin 80 mg orally disintegrating tablet in healthy human; format: ADME, organism-based, Plasma; conditions: in vivo, po
[50] = Hepatic extraction of active beta-hydroxy acid form of simvastatin following oral administration of simvastatin in human; format: ADME, organism-based, Liver; conditions: in vivo
[51] = Cmax of active HMG-CoA reductase inhibitor L-654,969 following administration of simvastatin tablet at 40 mg dose level in hypercholesterolemic patients; format: ADME, organism-based, Plasma; conditions: human, in vivo, po
[52] = Extrahepatic tissue penetration of active beta-hydroxy acid form of simvastatin following oral administration of simvastatin in rat; format: ADME, organism-based; conditions: in vivo
[53] = Extrahepatic tissue penetration of active beta-hydroxy acid form of simvastatin following oral administration of simvastatin in human; format: ADME, organism-based; conditions: in vivo
[54] = Extensive biliary excretion of active beta-hydroxy acid form of simvastatin following oral administration of simvastatin in rat; format: ADME, organism-based, Bile; conditions: in vivo
[55] = Bioavailability of active beta-hydroxy acid form of simvastatin following oral administration of simvastatin in rat; format: ADME, organism-based; conditions: in vivo
[56] = Cmax of active HMG-CoA reductase inhibitor L-654,969 following administration of simvastatin tablet at 80 mg dose level in hypercholesterolemic patients; format: ADME, organism-based, Plasma; conditions: human, in vivo, po

## CCC(C)(C)C(=O)O[C@H]1C[C@@H](C)C=C2C=C[C@H](C)[C@H](CC[C@@H]3C[C@@H](O)CC(=O)O3)[C@H]21 [SIMVASTATIN]
[1]
  AUC: 1533 ng.eq.h.ml-1
[2]
  AUC(0-t): 77.6 ng·h/mL
[3]
  AUC: 636 ng.eq.h.ml-1
[4]
  Cmax: 165 ng.eq.ml-1
[5]
  half-life: 10.1 h
[6]
  Cmax: 19.4 ng/mL
[7]
  AUC: 316 ng.eq.h.ml-1
[8]
  k el: 4.16e-05 s⁻¹
[9]
  AUC(0-t): 83.9 ng·h/mL
[10]
  half-life: 9.39 h
[11]
  Cmax: 18.3 ng/mL
[12]
  PPB: 97%
[13]
  AUC(0-inf): 98.5 ng·h/mL
[14]
  Absorption: Simvastatin is well absorbed in dogs
[15]
  k el: 3.02e-05 s⁻¹
[16]
  Cmax: 404 ng.eq.ml-1
[17]
  PPB: 97%
[18]
  AUC(0-inf): 102 ng·h/mL
[19]
  Absorption: Simvastatin is well absorbed in rats
[20]
  Cmax: 75 ng.eq.ml-1
[21]
  Absorption: Simvastatin is well absorbed in humans

## CCC(C)(C)C(=O)O[C@H]1C[C@@H](C)C=C2C=C[C@H](C)[C@H](CC[C@@H](O)C[C@@H](O)CC(=O)O)[C@H]21 [TENIVASTATIN]
[22]
  PPB: 93%
[23]
  Tmax: 1.8 h
[24]
  AUC (0-infinity): 47.76 ng·h/mL
[25]
  Cmax: 138 ng.eq.ml-1
[26]
  AUC(0-t): 36.61 ng·h/mL
[27]
  Compound recovery: VALUE = Extrahepatic tissue penetration of active beta-hydroxyacid form of simvastatin is relatively poor
[28]
  Tmax: 1.8 h
[29]
  F: The active beta-hydroxyacid form of simvastatin is poorly bioavailable in humans
[30]
  AUC: 668 ng.eq.h.ml-1
[31]
  Compound recovery: OUTCOME = Observed, VALUE = Biliary excretion of active beta-hydroxyacid form of simvastatin is extensive
[32]
  Tmax: 1.8 h
[33]
  AUC(0-t): 37.67 ng·h/mL
[34]
  Tmax: 4.42 h
[35]
  PPB: 93%
[36]
  AUC: 263 ng.eq.h.ml-1
[37]
  F: The active beta-hydroxyacid form of simvastatin is poorly bioavailable in dogs
[38]
  Hepatic extraction: VALUE = Hepatic extraction of active beta-hydroxyacid form of simvastatin is high
[39]
  t1/2: 8.67 h
[40]
  Cmax: 4.5 ng/mL
[41]
  Kel: 0.1554 h⁻¹
[42]
  Compound recovery: OUTCOME = Observed, VALUE = Biliary excretion of active beta-hydroxyacid form of simvastatin is extensive
[43]
  AUC: 120 ng.eq.h.ml-1
[44]
  Kel: 0.1357 h⁻¹
[45]
  AUC (0-infinity): 41.54 ng·h/mL
[46]
  Cmax: 3.88 ng/mL
[47]
  Tmax: 4.35 h
[48]
  Hepatic extraction: VALUE = Hepatic extraction of active beta-hydroxyacid form of simvastatin is high
[49]
  t1/2: 5.95 h
[50]
  Hepatic extraction: VALUE = Hepatic extraction of active beta-hydroxyacid form of simvastatin is high
[51]
  Cmax: 21 ng.eq.ml-1
[52]
  Compound recovery: VALUE = Extrahepatic tissue penetration of active beta-hydroxyacid form of simvastatin is relatively poor
[53]
  Compound recovery: VALUE = Extrahepatic tissue penetration of active beta-hydroxyacid form of simvastatin is relatively poor
[54]
  Compound recovery: OUTCOME = Observed, VALUE = Biliary excretion of active beta-hydroxyacid form of simvastatin is extensive
[55]
  F: The active beta-hydroxyacid form of simvastatin is poorly bioavailable in rats
[56]
  Cmax: 50 ng.eq.ml-1
